Values joined by “and” are separate entries in the source; they are usually repeats but may differ in a detail not shown here. Equal values may be shown once.
Test: Body weight and body composition (living NMR) of mice
Type: in vivo, mouse
Design: AUC of body weight curve, group mean / fat mass of DIO, group mean / Total Area (AUC of body weight curve): unit not given here
Details: for body weight of db/db ip APC, group mean: N 6; for Body weight, group mean: N=7; for Body weight: individual mice
Experimental: All animal experiments were performed according to procedures approved by the Shanghai Institutes for Biological Sciences (SIBS) Animal Care and Use Committee. The db/db mice (stock NO. 000642 C57BL/6J, JACKSON) were purchased from the Jackson laboratory. The 8–10-week-old wild-type C57BL/6 and ICR/JCL mice were purchased from the Shanghai Laboratory Animal Center. Mice were housed in the animal facility at SIBS, in which mice were maintained on a 12-h light/12-h dark cycle for at least 2 weeks before the study and had free access to water and a regular diet (12% fat). For high-fat-induced obesity mice (DIO), high-fat diet (60% fat, Research Diets) was fed to wild-type mice for at least 13–15 weeks and glucose-tolerance tests were performed to confirm the development of diabetes in these mice. After being euthanized, samples were collected. Unless specified, male mice were used for these experiments.
Under the condition of non-anesthesia and non-invasion, the composition of fat and lean in live mice was analyzed by nuclear magnetic resonance (NMR, The Minispec, Bruker) according to the operational manual.

[1] = DIO mice, APC 20 mg/kg, individual animals
[2] = db/db mice, mean, sample size 7

**Q.** Which results are given for `CC(C)=CCc1cc(C=CC(=O)O)cc(CC=C(C)C)c1O` [APC, 3,5-diprenyl-4-hydroxycinnamic acid]?
**A.** fat mass of DIO, group mean (DIO mice, APC 10 mg/kg, n=8): 9.151; Total Area (AUC of body weight curve) (DIO mice, APC 20 mg/kg ip, individual animals): 123.1 and 131.4 and 141.8 and 135.4 and 152.5 and 146.9 and 147.6 and 154 and 138.7; Body weight, column mean (main column effect) (DIO mice, APC 20 mg/kg ip, mean over 5 weeks, N=45, in g (unit assumed)): 35.74; AUC of body weight curve, group mean (DIO mice, APC 20 mg/kg ip, n=9): 141.3; Body weight (BW) (DIO mice, APC 20 mg/kg ip, week 0, individual animals): 36.3 g and 41.5 g and 43.7 g and 41.3 g (2×) and 48.2 g and 44.7 g and 46.6 g and 47.1 g; Body weight (BW) (DIO mice, APC 20 mg/kg ip, week 1, individual animals): 29.9 g and 34.9 g and 36.7 g and 33 g and 40.6 g and 37.6 g and 35.9 g and 38.6 g and 35.1 g; Body weight (BW) (DIO mice, APC 20 mg/kg ip, week 2, individual animals): 30.2 g and 33.7 g (2×) and 35.8 g and 41.6 g and 38.4 g and 36.8 g and 39.6 g and 34.9 g; Body weight (BW) (DIO mice, APC 20 mg/kg ip, week 3, individual animals): 30 g and 31.4 g and 35.1 g and 33.7 g and 41.2 g and 35.4 g and 36.3 g and 37.9 g and 34.4 g; Body weight (BW) (DIO mice, APC 20 mg/kg ip, week 4, individual animals): 30.5 g and 31.2 g and 34 g (2×) and 38.9 g and 31.3 g and 36.7 g and 37.2 g and 34.3 g; Body weight (BW) (DIO mice, APC 20 mg/kg ip, week 5, individual animals): 30.855 g and 35.275 g and 37.145 g and 35.105 g (2×) and 40.97 g and 37.995 g and 39.61 g and 40.035 g; Fat/lean ratio [1]: 0.1945 and 0.1916 and 0.1806 and 0.5498 and 0.1998 and 0.4126 and 0.3005 and 0.2177; fat mass of DIO [1]: 8.13 g and 8.08 g and 9.26 g and 10.23 g and 9.91 g and 8.44 g and 10.75 g and 9.93 g; Fat/lean ratio, group mean (DIO mice, APC 20 mg/kg, n=8): 0.2809; fat mass of DIO, group mean (DIO mice, APC 20 mg/kg, n=8): 9.341; fat of db/db mice (db/db mice, individual animals): 13.23 g and 18.64 g and 16.51 g and 20.35 g and 17.58 g and 17.71 g and 15.53 g; fat/lean ratio of db/db mice (db/db mice, individual animals): 1.371 and 1.124 (2×) and 1.477 and 1.196 and 1.113 and 1.231; body weight of db/db ip APC (db/db mice, 0W, individual animals): 45.4 g and 45.3 g and 44.6 g and 40 g and 47.8 g and 44 g; body weight of db/db ip APC (db/db mice, 1W, individual animals): 48.6 g and 47.9 g and 47.4 g and 42.5 g and 49.5 g and 45.9 g; body weight of db/db ip APC, group mean (db/db mice, 1W, mean): 46.97 g; body weight of db/db ip APC (db/db mice, 2W, individual animals): 48.4 g and 47.9 g and 47.3 g and 41.7 g and 48.9 g and 45.9 g; body weight of db/db ip APC (db/db mice, 4W, individual animals): 47.9 g and 46.5 g and 48.1 g and 42.5 g and 45.8 g and 47.8 g; body weight of db/db ip APC, group mean (db/db mice, 4W, mean): 46.43 g; body weight of db/db ip APC (db/db mice, 5W, individual animals): 47.9 g and 45.3 g and 47.8 g and 44.9 g and 46.8 g and 48.5 g; body weight of db/db ip APC, group mean (db/db mice, 5W, mean): 46.87 g; fat of db/db mice, group mean [2]: 17.08 g; fat/lean ratio of db/db mice, group mean [2]: 1.234; Body weight, group mean (lean WT mice ip APC, 8w, in g (unit assumed)): 20.96; Body weight (lean WT mice ip APC, 8w): 21.4 g and 21.2 g and 20.1 g and 20.5 g and 21.7 g and 20.9 g (2×) and 21.6 g; Body weight, column mean over all weeks (lean WT mice ip APC, 8w-15w, in g (unit assumed)): 22.98; Body weight, group mean (lean WT mice ip APC, 10w, in g (unit assumed)): 22.01; Body weight (lean WT mice ip APC, 10w): 23.62 g and 20.96 g and 22.95 g and 20.89 g and 22.05 g and 22.38 g and 21.2 g and 21.22 g; Body weight, group mean (lean WT mice ip APC, 12w, in g (unit assumed)): 23.14; Body weight (lean WT mice ip APC, 12w): 25.7 g and 21.4 g and 23.7 g and 23 g and 24.2 g and 22.5 g and 23.3 g and 21.5 g; Body weight, group mean (lean WT mice ip APC, 13w, in g (unit assumed)): 24.08; Body weight (lean WT mice ip APC, 13w): 25.85 g and 22.7 g and 24.7 g and 23.6 g and 24.5 g and 24.21 g and 23.8 g and 23 g; Body weight, group mean (lean WT mice ip APC, 15w, in g (unit assumed)): 24.72; Body weight (lean WT mice ip APC, 15w): 27.03 g and 22.8 g and 25.2 g and 23.7 g and 26 g and 24.5 g and 23.5 g and 23.8 g; RER, body weight and plasma NEFA levels of lean mice (lean wild C57 mice, i.p. 20 mg/kg, 3 weeks): little effect
